Reference: ChEMBL document CHEMBL5625219, “Design, synthesis fusidic acid derivatives alleviate acute lung injury via inhibiting MAPK/NF-κB/NLRP3 pathway” (Eur J Med Chem, 2023)
Calls of active or inactive are those of the source. The rule behind the calls is not given here.

Tests used:
RAW264.7 = assay: Cytotoxicity against mouse RAW264.7 cells assessed as reduction in cell viability at 30 uM incubated for 24 hrs by MTT assay relative to control; format: toxicity, cell-based; conditions: raw264.7, 24 h
[1] = Cytotoxicity against mouse RAW264.7 cells assessed as inhibition of cell growth incubated for 24 hrs by MTT assay; format: toxicity, cell-based
Mus musculus [2] = assay: (§1) Anti-inflammatory activity in LPS-induced BALB/c mouse model of […] assessed as attenuation of inflammatory cell infiltration in lungs at 10 mg/kg, po preadministered with compound for 3 days followed by LPS stimulation for 6 hrs after 1 hrs compound administration on day 3 by H&E staining based analysis; format: functional, organism-based; conditions: time 3.0 day
Mus musculus [3] = assay: as §1, with “lung alveolar hemorrhage” for “inflammatory cell infiltration in lungs”; format: functional, organism-based; conditions: time 3.0 day
Mus musculus [4] = assay: (§2) Anti-inflammatory activity in LPS-induced BALB/c mouse model of […] assessed as inhibition of LPS-induced increase in lung W/D ratio at 10 mg/kg, po preadministered with compound for 3 days followed by LPS stimulation for 6 hrs after 1 hrs compound administration on day 3; format: functional, organism-based; conditions: time 3.0 day
Mus musculus [5] = assay: as §2, with “increase in NO production in BALF at 10” for “increase in lung W/D ratio at 10”, “day 3 by Griess reagent based method” for “day 3”; format: functional, organism-based; conditions: time 3.0 day
Mus musculus [6] = assay: as §2, with “increase in IL-6 expression in BALF at 10” for “increase in lung W/D ratio at 10”, “day 3 by ELISA” for “day 3”; format: functional, organism-based; conditions: time 3.0 day
Mus musculus [7] = assay: as §2, with “increase in TNF-alpha expression in BALF at 10” for “increase in lung W/D ratio at 10”, “day 3 by ELISA” for “day 3”; format: functional, organism-based; conditions: time 3.0 day
Mus musculus [8] = assay: as §2, with “increase in NO production in serum at 10” for “increase in lung W/D ratio at 10”, “day 3 by Griess reagent based method” for “day 3”; format: functional, organism-based; conditions: time 3.0 day
Mus musculus [9] = assay: as §2, with “increase in IL-6 expression in serum at 10” for “increase in lung W/D ratio at 10”, “day 3 by ELISA” for “day 3”; format: functional, organism-based; conditions: time 3.0 day
Mus musculus [10] = assay: as §2, with “increase in TNF-alpha expression in serum at 10” for “increase in lung W/D ratio at 10”, “day 3 by ELISA” for “day 3”; format: functional, organism-based; conditions: time 3.0 day
Mus musculus [11] = assay: (§3) In vivo inhibition of NFkappaB activation in LPS-induced BALB/c mouse model of […] assessed as inhibition of NFkappaB degradation at 10 mg/kg, po preadministered with compound for 3 days followed by LPS stimulation for 6 hrs after 1 hrs compound administration on day 3 by Western blot analysis; format: functional, organism-based; conditions: time 3.0 day
Mus musculus [12] = assay: as §3, with “inhibition of IkappaBalpha degradation at” for “inhibition of NFkappaB degradation at”; format: functional, organism-based; conditions: time 3.0 day

SMILES | Activity (RAW264.7) [%] | IC50 at 24 h [1] [µM] | other results
CC(=O)O[C@H]1C[C@@]2(C)[C@@H](C[C@@H](O)[C@H]3[C@@]4(C)CC[C@@H](O)[C@@H](C)[C@@H]4CC[C@@]32C)/C1=C(\CCC=C(C)C)C(=O)O [FUSIDIC ACID] | 101.08 | 61.3 | Activity (Mus musculus [2]): Active; Activity (Mus musculus [3]): Active; Activity (Mus musculus [4]): Active; Activity (Mus musculus [5]): Active; Activity (Mus musculus [6]): Active; Activity (Mus musculus [7]): Active; Activity (Mus musculus [8]): Active; Activity (Mus musculus [9]): Active; Activity (Mus musculus [10]): Active; inhibition (Mus musculus [11]): Active; inhibition (Mus musculus [12]): Active
Cc1ccc(-c2cc(C(F)(F)F)nn2-c2ccc(S(N)(=O)=O)cc2)cc1 |  |  | Activity (Mus musculus [2]): Active; Activity (Mus musculus [3]): Active; Activity (Mus musculus [4]): Active; Activity (Mus musculus [5]): Active; Activity (Mus musculus [6]): Active; Activity (Mus musculus [7]): Active; Activity (Mus musculus [8]): Active; Activity (Mus musculus [9]): Active; Activity (Mus musculus [10]): Active; inhibition (Mus musculus [11]): Active; inhibition (Mus musculus [12]): Active
CC(=O)O[C@H]1C[C@@]2(C)[C@@H](C[C@@H](O)[C@H]3[C@@]4(C)CC[C@@H](O)[C@@H](C)[C@@H]4CC[C@@]32C)/C1=C(\CCC=C(C)C)C(=O)OCc1cn(Cc2ccc(F)cc2)nn1 | 103.74 | 68.7 | 
COc1ccc(-c2nnc(COC(=O)/C(CCC=C(C)C)=C3\[C@@H](OC(C)=O)C[C@@]4(C)[C@H]3C[C@@H](O)[C@H]3[C@@]5(C)CC[C@@H](O)[C@@H](C)[C@@H]5CC[C@@]34C)o2)cc1 | 101.7 | 114 | 
CC(=O)O[C@H]1C[C@@]2(C)[C@@H](C[C@@H](O)[C@H]3[C@@]4(C)CC[C@@H](O)[C@@H](C)[C@@H]4CC[C@@]32C)/C1=C(\CCC=C(C)C)C(=O)OCc1cn(-c2ccc(Cl)cc2)nn1 | 101.39 | 119 | 
COc1cc(-c2nnc(COC(=O)/C(CCC=C(C)C)=C3\[C@@H](OC(C)=O)C[C@@]4(C)[C@H]3C[C@@H](O)[C@H]3[C@@]5(C)CC[C@@H](O)[C@@H](C)[C@@H]5CC[C@@]34C)o2)cc(OC)c1OC | 97.84 | 129 | 
CC(=O)O[C@H]1C[C@@]2(C)[C@@H](C[C@@H](O)[C@H]3[C@@]4(C)CC[C@@H](O)[C@@H](C)[C@@H]4CC[C@@]32C)/C1=C(\CCC=C(C)C)C(=O)OCc1cn(Cc2ccccc2)nn1 | 98.53 | 88.3 | 
COc1cc(-n2cc(COC(=O)/C(CCC=C(C)C)=C3\[C@@H](OC(C)=O)C[C@@]4(C)[C@H]3C[C@@H](O)[C@H]3[C@@]5(C)CC[C@@H](O)[C@@H](C)[C@@H]5CC[C@@]34C)nn2)cc(OC)c1OC | 98.92 | 120 | 
CC(=O)O[C@H]1C[C@@]2(C)[C@@H](C[C@@H](O)[C@H]3[C@@]4(C)CC[C@@H](O)[C@@H](C)[C@@H]4CC[C@@]32C)/C1=C(\CCC=C(C)C)C(=O)OCc1nnc(-c2ccc(F)cc2)o1 | 102.47 | 47.9 | 
CC(=O)O[C@H]1C[C@@]2(C)[C@@H](C[C@@H](O)[C@H]3[C@@]4(C)CC[C@@H](O)[C@@H](C)[C@@H]4CC[C@@]32C)/C1=C(\CCC=C(C)C)C(=O)OCc1cn(-c2ccc(Cl)c(Cl)c2)nn1 | 104.17 | 56.1 | 
CC(=O)O[C@H]1C[C@@]2(C)[C@@H](C[C@@H](O)[C@H]3[C@@]4(C)CC[C@@H](O)[C@@H](C)[C@@H]4CC[C@@]32C)/C1=C(\CCC=C(C)C)C(=O)OCc1cn(Cc2ccc(C)cc2)nn1 | 105.96 | 121 | 
COc1ccc(-n2cc(COC(=O)/C(CCC=C(C)C)=C3\[C@@H](OC(C)=O)C[C@@]4(C)[C@H]3C[C@@H](O)[C@H]3[C@@]5(C)CC[C@@H](O)[C@@H](C)[C@@H]5CC[C@@]34C)nn2)cc1 | 99.38 | 43.6 | 
CC(=O)O[C@H]1C[C@@]2(C)[C@@H](C[C@@H](O)[C@H]3[C@@]4(C)CC[C@@H](O)[C@@H](C)[C@@H]4CC[C@@]32C)/C1=C(\CCC=C(C)C)C(=O)OCc1nnc(-c2ccccc2)o1 | 102.94 | 40.1 | 
CC(=O)O[C@H]1C[C@@]2(C)[C@@H](C[C@@H](O)[C@H]3[C@@]4(C)CC[C@@H](O)[C@@H](C)[C@@H]4CC[C@@]32C)/C1=C(\CCC=C(C)C)C(=O)OCc1cc(-c2ccccc2)no1 | 104.11 | 93 | 
COc1cc(-c2cc(COC(=O)/C(CCC=C(C)C)=C3\[C@@H](OC(C)=O)C[C@@]4(C)[C@H]3C[C@@H](O)[C@H]3[C@@]5(C)CC[C@@H](O)[C@@H](C)[C@@H]5CC[C@@]34C)on2)cc(OC)c1OC | 95.67 | 50.6 | 
COc1cc(Cn2cc(COC(=O)/C(CCC=C(C)C)=C3\[C@@H](OC(C)=O)C[C@@]4(C)[C@H]3C[C@@H](O)[C@H]3[C@@]5(C)CC[C@@H](O)[C@@H](C)[C@@H]5CC[C@@]34C)nn2)cc(OC)c1OC | 97.45 | 56.1 | 
CC(=O)O[C@H]1C[C@@]2(C)[C@@H](C[C@@H](O)[C@H]3[C@@]4(C)CC[C@@H](O)[C@@H](C)[C@@H]4CC[C@@]32C)/C1=C(\CCC=C(C)C)C(=O)OCc1cn(Cc2ccc(Cl)cc2)nn1 | 90.57 | 72.5 | 
CC(=O)O[C@H]1C[C@@]2(C)[C@@H](C[C@@H](O)[C@H]3[C@@]4(C)CC[C@@H](O)[C@@H](C)[C@@H]4CC[C@@]32C)/C1=C(\CCC=C(C)C)C(=O)OCc1cn(-c2ccc([N+](=O)[O-])cc2)nn1 | 101.62 | 120 | 
CC(=O)O[C@H]1C[C@@]2(C)[C@@H](C[C@@H](O)[C@H]3[C@@]4(C)CC[C@@H](O)[C@@H](C)[C@@H]4CC[C@@]32C)/C1=C(\CCC=C(C)C)C(=O)OCc1cc(-c2ccc(Cl)cc2)no1 | 103.94 | 42 | 
CC(=O)O[C@H]1C[C@@]2(C)[C@@H](C[C@@H](O)[C@H]3[C@@]4(C)CC[C@@H](O)[C@@H](C)[C@@H]4CC[C@@]32C)/C1=C(\CCC=C(C)C)C(=O)OCc1cn(Cc2ccc([N+](=O)[O-])cc2)nn1 | 101.85 | 56.8 | 
CC(=O)O[C@H]1C[C@@]2(C)[C@@H](C[C@@H](O)[C@H]3[C@@]4(C)CC[C@@H](O)[C@@H](C)[C@@H]4CC[C@@]32C)/C1=C(\CCC=C(C)C)C(=O)OCc1cc(-c2ccc(Cl)c(Cl)c2)no1 | 94.05 | 44.6 | 
